Data published in PubChem BioAssay AID1963442 (Molecular Pharmacology Branch, DTP, NCI, 2024).

Tested on: MPNST complex spheroid with HUVEC/MSC, growth, % test/control
Assay: Anticancer human tumor MPNST cell line growth inhibition [Asc];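 note: compounds left on spheroids for seven days before reading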
Settings: for IC50: curve of first compound; for viability, T/C: stronger effect = lower value
Method in brief: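 Complex spheroids combining tumor cells with HUVEC endothelial cells and human MSCs, at 37 degrees C, 5% CO2; agents tested alone or combined, half-log dilutions from at or near clinical Cmax, or 10 microM if Cmax unknown.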

[1] = second compound 0.1 µM, first compound 0.0316 µM
[2] = second compound 0.1 µM, first compound 0.1 µM
[3] = second compound 0.1 µM, first compound 0.316 µM
[4] = second compound 0.1 µM, first compound 1 µM
[5] = second compound 0.316 µM, first compound 0.0316 µM
[6] = second compound 0.316 µM, first compound 0.1 µM
[7] = second compound 0.316 µM, first compound 0.316 µM
[8] = second compound 0.316 µM, first compound 1 µM
[9] = second compound 1 µM, first compound 0.0316 µM
[10] = second compound 1 µM, first compound 0.1 µM
[11] = second compound 1 µM, first compound 0.316 µM
[12] = second compound 1 µM, first compound 1 µM
[13] = second compound 3.16 µM, first compound 0.0316 µM
[14] = second compound 3.16 µM, first compound 0.1 µM
[15] = second compound 3.16 µM, first compound 0.316 µM
[16] = second compound 3.16 µM, first compound 1 µM
[17] = second compound 10 µM, first compound 0.0316 µM
[18] = second compound 10 µM, first compound 0.1 µM
[19] = second compound 10 µM, first compound 0.316 µM
[20] = second compound 10 µM, first compound 1 µM
[21] = second compound 0.1 µM, first compound 0.00316 µM
[22] = second compound 0.1 µM, first compound 0.01 µM
[23] = second compound 0.316 µM, first compound 0.00316 µM
[24] = second compound 0.316 µM, first compound 0.01 µM
[25] = second compound 1 µM, first compound 0.00316 µM
[26] = second compound 1 µM, first compound 0.01 µM
[27] = second compound 3.16 µM, first compound 0.00316 µM
[28] = second compound 3.16 µM, first compound 0.01 µM
[29] = second compound 10 µM, first compound 0.00316 µM
[30] = second compound 10 µM, first compound 0.01 µM

Row | SMILES | IC50 (second compound 0.1 µM) | IC50 (second compound 0.316 µM) | IC50 (second compound 1 µM) | IC50 (second compound 3.16 µM) | IC50 (second compound 10 µM) | viability, T/C [1] | viability, T/C [2] | viability, T/C [3] | viability, T/C [4] | viability, T/C [5] | viability, T/C [6] | viability, T/C [7] | viability, T/C [8] | viability, T/C [9] | viability, T/C [10] | viability, T/C [11] | viability, T/C [13] | viability, T/C [14] | viability, T/C [17] | viability, T/C [18] | further results
1 | C=CC(=O)N1CCN(c2nc(=O)n(-c3c(C)ccnc3C(C)C)c3nc(-c4c(O)cccc4F)c(F)cc23)C(C)C1 (stereo not given) + Cc1c(S(C)(=O)=O)c(-c2cc(F)cc(N3CCN(c4ccc(NS(=O)(=O)c5ccc(NC(CCN6CCC(C(=O)OCCCP(=O)(O)O)CC6)CSc6ccccc6)c(S(=O)(=O)C(F)(F)F)c5)cc4)CC3)c2)c(-c2ccc(Cl)cc2)n1C(C)C | > 10000 nM | > 10000 nM | > 10000 nM | > 10000 nM | > 10000 nM | 71.9% | 74.7% | 84.2% | 96.2% | 79.4% | 93.8% | 76.7% | 88.9% | 90.8% | 85.1% | 89.8% | 66.5% | 88% | 83.5% | 91.2% | viability, T/C (second compound 0.1 µM, first compound 3.16 µM): 93.4%; viability, T/C (second compound 0.1 µM, first compound 10 µM): 105%; viability, T/C (second compound 0.316 µM, first compound 3.16 µM): 85.7%; viability, T/C (second compound 0.316 µM, first compound 10 µM): 108%; viability, T/C [12]: 89.9%; viability, T/C (second compound 1 µM, first compound 3.16 µM): 101%; viability, T/C (second compound 1 µM, first compound 10 µM): 118%; viability, T/C [15]: 84.6%; viability, T/C [16]: 99%; viability, T/C (second compound 3.16 µM, first compound 3.16 µM): 100%; viability, T/C (second compound 3.16 µM, first compound 10 µM): 99%; viability, T/C [19]: 83.8%; viability, T/C [20]: 97.1%; viability, T/C (second compound 10 µM, first compound 3.16 µM): 115%; viability, T/C (second compound 10 µM, first compound 10 µM): 115%
2 | COc1c(OCCCN2CCOCC2)ccc2c3n(c(=NC(=O)c4cnc(N)nc4)nc12)CCN3 + Cc1c(S(C)(=O)=O)c(-c2cc(F)cc(N3CCN(c4ccc(NS(=O)(=O)c5ccc(NC(CCN6CCC(C(=O)OCCCP(=O)(O)O)CC6)CSc6ccccc6)c(S(=O)(=O)C(F)(F)F)c5)cc4)CC3)c2)c(-c2ccc(Cl)cc2)n1C(C)C | 68.1 nM | 50.3 nM | 62.8 nM | 31.7 nM | 29.3 nM | 62.3% | 41.8% | 30.4% | 18.6% | 61.7% | 35% | 23.8% | 16.8% | 62.4% | 40.1% | 25.2% | 49.7% | 31.1% | 48.5% | 27.5% | viability, T/C [21]: 60.5%; viability, T/C [22]: 71.7%; viability, T/C [23]: 72.6%; viability, T/C [24]: 62.3%; viability, T/C [25]: 75.9%; viability, T/C [26]: 77.1%; viability, T/C [12]: 14.4%; viability, T/C [27]: 79.3%; viability, T/C [28]: 69.5%; viability, T/C [15]: 18.9%; viability, T/C [16]: 16.8%; viability, T/C [29]: 90.1%; viability, T/C [30]: 71.8%; viability, T/C [19]: 18.3%; viability, T/C [20]: 8.75%
3 | NC1CCC(NC2CC2c2ccccc2)CC1 (stereo not given) + Cc1c(S(C)(=O)=O)c(-c2cc(F)cc(N3CCN(c4ccc(NS(=O)(=O)c5ccc(NC(CCN6CCC(C(=O)OCCCP(=O)(O)O)CC6)CSc6ccccc6)c(S(=O)(=O)C(F)(F)F)c5)cc4)CC3)c2)c(-c2ccc(Cl)cc2)n1C(C)C | > 100 nM | > 100 nM | > 100 nM | > 100 nM | > 100 nM | 72.4% | 64.2% |  |  | 66.4% | 61.8% |  |  | 69.4% | 59.8% |  | 65.4% | 54.1% | 65.9% | 62% | viability, T/C (second compound 0.1 µM, first compound 0.000316 µM): 67.4%; viability, T/C (second compound 0.1 µM, first compound 0.001 µM): 71.3%; viability, T/C [21]: 63.5%; viability, T/C [22]: 75%; viability, T/C (second compound 0.316 µM, first compound 0.000316 µM): 81.8%; viability, T/C (second compound 0.316 µM, first compound 0.001 µM): 67.6%; viability, T/C [23]: 87.1%; viability, T/C [24]: 64.5%; viability, T/C (second compound 1 µM, first compound 0.000316 µM): 73.8%; viability, T/C (second compound 1 µM, first compound 0.001 µM): 63.2%; viability, T/C [25]: 70.4%; viability, T/C [26]: 66.5%; viability, T/C (second compound 3.16 µM, first compound 0.000316 µM): 60.8%; viability, T/C (second compound 3.16 µM, first compound 0.001 µM): 81.5%; viability, T/C [27]: 64.9%; viability, T/C [28]: 65.8%; viability, T/C (second compound 10 µM, first compound 0.000316 µM): 79%; viability, T/C (second compound 10 µM, first compound 0.001 µM): 83.2%; viability, T/C [29]: 69.2%; viability, T/C [30]: 69.7%
